Experimental data published in US9556217B2, “Amphiphilic compounds” (WISCONSIN ALUMNI RESEARCH FOUNDATION, priority 2012, dated 2017).

Legend:
[1] = tested on: LHI-RC superassembly; experiment: Extraction of LHI-RC superassembly from membranes; set-up: species or system R. capsulatus; details: 2 wt % GDN
Procedure: The favorable MelB extraction performance of GDN led to the examination of this amphiphile for extraction of other IMPs. […] DDM and GDN were used to extract a CMP-Sia fusion protein bearing green fluorescent protein (GFP) at the C-terminus, after expression in Saccharomyces cerevisiae; the amount of solubilized protein was estimated by total fluorescence. GDN (2 wt %), DDM (1 wt %) and OG (1 wt %) gave ˜70%, ˜80% and ˜50% extraction yields, respectively.
The procedure was performed according to the protocol reported by Chae and coworkers (Nat. Methods 2010, 7, 1003-1008).
The solubilization and stability of the R. capsulatus superassembly were assessed according to the published protocol (Chae et al., J. Am. Chem. Soc. 2010, 132, 16750-16752). Briefly, specialized photosynthetic membranes obtained from an engineered strain of Rhodobacter (R.) capsulatus, U43[pUHTM86Bgl], lacking the LHII light-harvesting complex, were used. Solubilization of the LHI-RC superassembly began by thawing, homogenizing, and incubating frozen aliquots of R. capsulatus membranes at 32° C. for 30 min. Subsequent 30-min incubation was performed after adding DDM or LDAO at 1.0 wt % or GDN at 2.0 wt % in the solid form. […] To assess solubilization efficiency, UV-Vis spectra of the solubilized protein solutions were measured in a range of 650˜950 nm.

[2] = target: T1, CMP-Sia (Mus musculus, UniProt Q61420); experiment: CPM thermal stability assay, CMP-Sia; set-up: species or system murine; details: CMC+0.04 wt %, 30° C., under the conditions used for the gel filtration analysis
T1 construct: GFP-His (C, cleaved yes); made in house; host or cells: Saccharomyces cerevisiae
T1 sequence (Q61420 1-336): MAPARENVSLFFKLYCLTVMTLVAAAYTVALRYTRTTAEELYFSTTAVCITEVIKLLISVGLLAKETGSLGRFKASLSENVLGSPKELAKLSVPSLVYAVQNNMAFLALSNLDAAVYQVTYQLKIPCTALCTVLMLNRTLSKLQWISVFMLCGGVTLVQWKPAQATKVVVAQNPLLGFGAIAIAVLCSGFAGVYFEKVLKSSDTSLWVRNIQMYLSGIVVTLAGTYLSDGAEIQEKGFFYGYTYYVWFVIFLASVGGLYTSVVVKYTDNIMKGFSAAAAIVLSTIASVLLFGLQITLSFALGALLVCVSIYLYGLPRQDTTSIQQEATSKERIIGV
Procedure: FIG. 6. CPM assays for (a) CMP-Sia, (b) GlpG and (c) SQR solubilized with each new amphiphile or DDM. The coumarin moiety of CPM is internally quenched by the maleimide unit, but the coumarin becomes fluorescent following reaction with Cys side chain thiol groups exposed upon protein unfolding. The CPM assay can therefore be used to monitor the extent of protein unfolding. CMP-Sia and GlpG were initially extracted from the native membrane with 1% DDM in PBS, 10 mM imidazole (pH 8.0), 150 mM NaCl, 10% glycerol, and isolated in 20 mM Tris (pH 7.5), 150 mM NaCl containing 0.03% DDM. SQR was extracted from the membrane using 2% C12E9 in 20 mM potassium phosphate (pH 7.4), 0.2 M EDTA, and isolated in 20 mM Tris (pH 7.6), 0.2% decyl-β-D-maltoside (DM). […] The “Relative amount of folded protein” in each case is defined as follows: 100% corresponds to the fluorescence emission intensity at time=0 min; 0% corresponds to the lowest value measured among the amphiphile-treated samples for each protein during the 130 min assay period. […] For GlpG and SQR, 0% is defined by the lowest value measured for protein solubilized with DDM. […]
CMP-Sia and GlpG were expressed as fusion proteins with a C-terminal GFP-His tag in Saccharomyces cerevisiae and Escherichia coli respectively. […]

| Structure (SMILES) | LHI-RC superassembly extraction compared with 1 wt % DDM [1] | Relative amount of folded protein (CPM assay), CMP-Sia [2] [%] |
| --- | --- | --- |
| C[C@@H]1CC[C@@]2(OC1)O[C@H]1C[C@H]3[C@@H]4CC=C5C[C@@H](OCCC(CO[C@@H]6OC(CO)[C@@H](O[C@H]7OC(CO)[C@@H](O)C(O)C7O)C(O)C6O)CO[C@@H]6OC(CO)[C@@H](O[C@H]7OC(CO)[C@@H](O)C(O)C7O)C(O)C6O)CC[C@]5(C)[C@H]4CC[C@]3(C)[C@@H]1[C@@H]2C (some centres unmarked) [GDN, glyco-diosgenin] | Comparable results |  |
| CCCCCCCCCCCCO[C@@H]1O[C@H](CO)[C@@H](O[C@H]2O[C@H](CO)[C@@H](O)[C@H](O)[C@H]2O)[C@H](O)[C@H]1O [DDM, dodecyl-β-D-maltoside, reference compound] |  | ~20 |
